In US10906880B2, “Kind of isothiazole oxime ether-containing strobilurin derivatives and its preparation methods and application” (priority 2016, dated 2021):
Read-outs that look alike come from different tables or passages of the source.

What was measured:
Physalospora piricola = experiment: Fungicide activity, mycelial growth inhibition on PDA plate; type: cell-based; conditions: for inhibition at 50 µg/mL: read-out: Fungicidal activity inhibition, PP
Rhizoctonia cerealis = experiment: as above; type: cell-based; conditions: for inhibition at 50 µg/mL: Ceratobasidium cereale, read-out: Fungicidal activity inhibition, RC
Cercospora arachidicola = experiment: as above; type: cell-based; conditions: for inhibition at 50 µg/mL: Mycosphaerella arachidis, read-out: Fungicidal activity inhibition, CA
[1] = tested on: Phytophthora infestans (Mont) de Bary; experiment: microbe, parasite or virus in culture; type: cell-based; conditions: for Fungicidal activity inhibition, PI: 50 μg/mL, P. infestans (Mont.) de Bary; for inhibition at 50 µg/mL: Phytophthora infestans, read-out: Fungicidal activity inhibition, PI, 50 μg/mL, P. infestans (Mont.) de Bary
Botrytis cinerea = experiment: Fungicide activity, mycelial growth inhibition on PDA plate; type: cell-based; conditions: for inhibition at 50 µg/mL: Botrytis cinerea, read-out: Fungicidal activity inhibition, BC
Sclerotinia sclerotiorum = experiment: as above; type: cell-based; conditions: for inhibition at 50 µg/mL: Sclerotinia sclerotiorum, read-out: Fungicidal activity inhibition, SS
Pellicularia sasakii = experiment: as above; type: cell-based; conditions: for inhibition at 50 µg/mL: 50 μg/mL, P. sasakii, read-out: Fungicidal activity inhibition, PS
Gibberella zeae = experiment: microbe, parasite or virus in culture; type: cell-based; conditions: for Fungicidal activity inhibition, GZ: 50 μg/mL, G. zeae
Alternaria solani = experiment: Fungicide activity, mycelial growth inhibition on PDA plate; type: cell-based; conditions: for inhibition at 50 µg/mL: Alternaria solani, read-out: Fungicidal activity inhibition, AS
TMV [2] = experiment: Anti-TMV activity on tobacco, induction mode (systemic acquired resistance); type: in vivo, tobacco mosaic virus; conditions: 100 μg/mL; for inhibition at 100 µg/mL: Tobacco mosaic virus, read-out: Anti-TMV activity inhibition, Induction effect
TMV [3] = experiment: Anti-TMV activity on tobacco, protection mode; type: in vivo, tobacco mosaic virus; conditions: 100 μg/mL; for inhibition at 100 µg/mL: Tobacco mosaic virus, read-out: Anti-TMV activity inhibition, Protection effect
TMV [4] = experiment: Anti-TMV activity on tobacco, curative mode; type: in vivo, tobacco mosaic virus; conditions: 100 μg/mL, tobacco; for inhibition at 100 µg/mL: Tobacco mosaic virus, read-out: Anti-TMV activity inhibition, Curative effect
TMV [5] = experiment: Anti-TMV activity on tobacco, inactivation mode; type: in vivo, tobacco mosaic virus; conditions: 100 μg/mL; for inhibition at 100 µg/mL: Tobacco mosaic virus, read-out: Anti-TMV activity inhibition, Inactivation effect

SMILES | inhibition at 50 µg/mL (Physalospora piricola; 50 μg/mL, P. piricola) [%] | melting point [°C] | inhibition at 50 µg/mL (Rhizoctonia cerealis; 50 μg/mL, R. cerealis) [%] | inhibition at 50 µg/mL (Rhizoctonia cerealis) [%] | inhibition at 50 µg/mL (Cercospora arachidicola; 50 μg/mL, C. arachidicola) [%] | inhibition at 50 µg/mL (Botrytis cinerea; 50 μg/mL, B. cinerea) [%] | inhibition at 50 µg/mL (Sclerotinia sclerotiorum; 50 μg/mL, S. sclerotiorum) [%] | inhibition at 50 µg/mL (Sclerotinia sclerotiorum) [%] | inhibition at 50 µg/mL (Pellicularia sasakii) [%] | inhibition at 50 µg/mL (Alternaria solani; 50 μg/mL, A. solani) [%] | inhibition at 50 µg/mL (Alternaria solani) [%] | inhibition at 100 µg/mL (TMV [3]) [%] | inhibition at 100 µg/mL (TMV [4]) [%] | inhibition at 50 µg/mL (Cercospora arachidicola) [%] | inhibition at 100 µg/mL (TMV [5]) [%] | inhibition at 100 µg/mL (TMV [2]) [%] | also measured
CO/C=C(/C(=O)OC)c1ccccc1Oc1cc(Oc2ccccc2C#N)ncn1 [Azoxystrobin, reference compound] | – | – | – | – | – | – | – | – | – | – | – | – | – | – | – | – | Fungicidal activity inhibition, PP (Physalospora piricola): 100%; Fungicidal activity inhibition, RC (Rhizoctonia cerealis): 84.06%; Fungicidal activity inhibition, CA (Cercospora arachidicola): 55.56%; Fungicidal activity inhibition, PI [1]: 46.88%; Fungicidal activity inhibition, BC (Botrytis cinerea): 91.18%; Fungicidal activity inhibition, SS (Sclerotinia sclerotiorum): 88.10%; Fungicidal activity inhibition, PS (Pellicularia sasakii): 80.77%; Fungicidal activity inhibition, GZ (Gibberella zeae): 71.43%; Fungicidal activity inhibition, AS (Alternaria solani): 75.00%
CSC(=O)c1cccc2nnsc12 [BTH, reference compound] | – | – | – | – | – | – | – | – | – | – | – | – | – | – | – | – | Anti-TMV activity inhibition, Induction effect (TMV [2]): 78.00 ± 1.34%; Anti-TMV activity inhibition, Protection effect (TMV [3]): 78.10 ± 0.54%
CO/C=C(/C(=O)OC)c1ccccc1CO/N=C(\C)CC(=O)c1snc(Cl)c1Cl [CL04-04-B] | 60.9 | 103 to 105 | 92.6 | > 50 | 75 | 58.3 | 76.7 | > 40 | 64.7 | 50 | > 30 | > 40 | 19.1 ± 2 | – | – | – | inhibition at 50 µg/mL [1]: > 40%; inhibition at 50 µg/mL (Botrytis cinerea): > 45%
CO/C=C(/C(=O)OC)c1ccccc1CO/N=C(C)/C=C/c1snc(Cl)c1Cl [CL04-06] | – | 101 to 103 | 100 | – | 50 | 100 | 100 | – | 70.6 | 57.1 | > 30 | > 40 | 22.4 ± 6.85 | > 30 | 22.2 ± 5.9 | – | inhibition at 50 µg/mL (Physalospora piricola): 73.9%
CO/N=C(/C(=O)OC)c1ccccc1CO/N=C(\C)c1snc(Cl)c1Cl [CL04-15A] | 53 | 73 to 75 | 85.5 | > 50 | 50 | 100 | 100 | – | 76.9 | 47.1 | > 30 | > 40 | 1.52 ± 0.62 | > 30 | – | – | inhibition at 50 µg/mL (Gibberella zeae; Fusarium graminearum, read-out: Fungicidal activity inhibition, GZ, 50 μg/mL, G. zeae): > 30%
CO/N=C(/C(=O)OC)c1ccccc1CO/N=C(C)/C=C/c1snc(Cl)c1Cl [CL04-17] | 47.8 | 105 to 107 | 81.5 | > 50 | 50 | 100 | 86.7 | > 40 | 58.8 | 35.7 | > 30 | 29.3 ± 1.31 | > 30 | > 30 | > 30 | > 30 | inhibition at 50 µg/mL [1]: > 40%
CO/N=C(/C(=O)NCC(F)F)c1ccccc1CO/N=C(\C)c1snc(Cl)c1Cl [CL04-22A] | 40.4 | 78 to 80 | 87.7 | > 50 | 42.9 | 53.9 | 84 | > 40 | 20 | 37.1 | > 30 | 30.7 ± 2.06 | 23.4 ± 5.58 | > 30 | > 30 | – | inhibition at 50 µg/mL (Botrytis cinerea): > 45%
CO/N=C(/C(=O)NC1CC1)c1ccccc1CO/N=C(\C)c1snc(Cl)c1Cl [CL04-22C] | 61.4 | 115 to 117 | 61 | > 50 | 44 | 47.4 | 80 | > 40 | 56.8 | 27.9 | – | 23.6 ± 0.57 | 4.62 ± 0.55 | > 30 | 4.44 ± 0.85 | – | Fungicidal activity inhibition, PI [1]: 100%; inhibition at 50 µg/mL (Botrytis cinerea): > 45%
CO/N=C(/C(=O)NC(C)(C)CSC)c1ccccc1CO/N=C(\C)c1snc(Cl)c1Cl [CL04-22E] | 42.9 | – | 76 | > 50 | 45.8 | 62.5 | 29.4 | – | 21.2 | 27.3 | – | 22.7 ± 2.05 | 20.2 ± 5.58 | > 30 | > 30 | 12.7 ± 6.05 | inhibition at 50 µg/mL [1]: 28.6%; inhibition at 50 µg/mL (Botrytis cinerea): > 45%
C#CCNC(=O)/C(=N/OC)c1ccccc1CO/N=C(\N)c1snc(Cl)c1Cl [CL04-25A] | 19.3 | 106 to 108 | 65.8 | > 50 | 20 | 42.1 | 46.7 | > 40 | 46 | 8.2 | – | > 40 | – | – | 0 | – | Fungicidal activity inhibition, PI [1]: 100%
CO/N=C(/C(=O)NC1CC1)c1ccccc1CO/N=C(\N)c1snc(Cl)c1Cl [CL04-25B] | 22.8 | – | 85.4 | > 50 | 28 | 36.8 | 73.3 | > 40 | 18.9 | 21.3 | – | 19.6 ± 3.36 | 20.5 ± 1.84 | – | 0 | 18.6 ± 3.76 | inhibition at 50 µg/mL [1]: 33.3%
CO/N=C(/C(=O)NC1CC1)c1ccccc1CO/N=C(C)/C=C/c1snc(Cl)c1Cl [CL04-32C] | 71.9 | 95 to 97 | 70.7 | > 50 | 60 | 57.9 | 73.3 | > 40 | 67.6 | 47.5 | > 30 | 19 ± 0.72 | 31.6 ± 3.91 | > 30 | > 30 | 16 ± 7.71 | Fungicidal activity inhibition, PI [1]: 100%; inhibition at 50 µg/mL (Botrytis cinerea): > 45%
CO/N=C(/C(=O)N[C@H](C)CSC)c1ccccc1CO/N=C(C)/C=C/c1snc(Cl)c1Cl [CL04-32F] | 58 | – | 62 | > 50 | 12.5 | 42.9 | 52.9 | > 40 | 21.2 | 12.7 | – | > 40 | – | – | 7.71 ± 1.42 | – | inhibition at 50 µg/mL [1]: 20%
CO/C=C(/C(=O)OC)c1ccccc1CO/N=C(C)/C=C/c1ccc(Cl)cc1 [Enestroburin, reference compound] | – | – | – | – | – | – | – | – | – | – | – | – | – | – | – | – | Fungicidal activity inhibition, PP (Physalospora piricola): 59.09%; Fungicidal activity inhibition, RC (Rhizoctonia cerealis): 73.97%; Fungicidal activity inhibition, CA (Cercospora arachidicola): 55.22%; Fungicidal activity inhibition, PI [1]: 32.97%; Fungicidal activity inhibition, BC (Botrytis cinerea): 48.57%; Fungicidal activity inhibition, SS (Sclerotinia sclerotiorum): 44.00%; Fungicidal activity inhibition, PS (Pellicularia sasakii): 57.50%; Fungicidal activity inhibition, GZ (Gibberella zeae): 21.54%; Fungicidal activity inhibition, AS (Alternaria solani): 50.00%
N#Cc1ccccc1NC(=O)c1snc(Cl)c1Cl [Isotianil, reference compound] | – | – | – | – | – | – | – | – | – | – | – | – | – | – | – | – | Anti-TMV activity inhibition, Induction effect (TMV [2]): 44.44 ± 5.18%; Anti-TMV activity inhibition, Protection effect (TMV [3]): 24.80 ± 5.85%; Anti-TMV activity inhibition, Inactivation effect (TMV [5]): 20.77 ± 7.30%; Anti-TMV activity inhibition, Curative effect (TMV [4]): 27.31 ± 2.12%
NC(=O)c1ncn([C@@H]2O[C@H](CO)[C@@H](O)[C@H]2O)n1 [Ribavirin, reference compound] | – | – | – | – | – | – | – | – | – | – | – | – | – | – | 78 ± 1 | – | –
Nc1ccc(S(=O)(=O)Nc2nccs2)cc1 [SZG-7, reference compound] | – | – | – | – | – | – | – | – | – | – | – | – | – | – | – | 79 ± 2.27 | –
Cc1ccc(NC(=O)c2snnc2C)cc1Cl [TDL, Tiadinil, reference compound] | – | – | – | – | – | – | – | – | – | – | – | – | – | – | – | 65 ± 2 | –
